Results published in paper doi:10.1101/2025.01.28.635346v1 (bioRxiv, 2025).
Bridge positions count the residues as written; N and C are the ends. Peptide text beside a SMILES is read from it.

Experiments:
LCK = LCK (Homo sapiens, UniProt P06239); experiment: Safetyscan47 Kinases Binding, Inhibitor
CHRM1 = target: T1, CHRM1 (Homo sapiens, UniProt P11229); experiment: Safetyscan47 GPCR Calcium Flux, Antagonist; format: cell-based
T1 sequence (P11229 1-460): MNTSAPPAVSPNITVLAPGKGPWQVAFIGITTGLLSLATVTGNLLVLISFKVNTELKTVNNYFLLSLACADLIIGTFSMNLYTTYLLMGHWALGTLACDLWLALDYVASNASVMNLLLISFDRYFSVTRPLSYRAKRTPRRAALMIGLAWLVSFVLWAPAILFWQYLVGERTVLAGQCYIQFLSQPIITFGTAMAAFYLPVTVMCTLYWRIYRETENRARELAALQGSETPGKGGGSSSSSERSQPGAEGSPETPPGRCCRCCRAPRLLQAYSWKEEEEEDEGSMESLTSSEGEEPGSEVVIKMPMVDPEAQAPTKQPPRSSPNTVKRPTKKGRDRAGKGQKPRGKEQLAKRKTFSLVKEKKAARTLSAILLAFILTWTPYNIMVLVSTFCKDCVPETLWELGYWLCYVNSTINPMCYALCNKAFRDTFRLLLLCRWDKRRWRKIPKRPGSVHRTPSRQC

GR = target: T2, GR (Homo sapiens, UniProt P04150); experiment: Safetyscan47 NHR Protein Interaction, Agonist; format: cell-based
T2 sequence (P04150 1-777): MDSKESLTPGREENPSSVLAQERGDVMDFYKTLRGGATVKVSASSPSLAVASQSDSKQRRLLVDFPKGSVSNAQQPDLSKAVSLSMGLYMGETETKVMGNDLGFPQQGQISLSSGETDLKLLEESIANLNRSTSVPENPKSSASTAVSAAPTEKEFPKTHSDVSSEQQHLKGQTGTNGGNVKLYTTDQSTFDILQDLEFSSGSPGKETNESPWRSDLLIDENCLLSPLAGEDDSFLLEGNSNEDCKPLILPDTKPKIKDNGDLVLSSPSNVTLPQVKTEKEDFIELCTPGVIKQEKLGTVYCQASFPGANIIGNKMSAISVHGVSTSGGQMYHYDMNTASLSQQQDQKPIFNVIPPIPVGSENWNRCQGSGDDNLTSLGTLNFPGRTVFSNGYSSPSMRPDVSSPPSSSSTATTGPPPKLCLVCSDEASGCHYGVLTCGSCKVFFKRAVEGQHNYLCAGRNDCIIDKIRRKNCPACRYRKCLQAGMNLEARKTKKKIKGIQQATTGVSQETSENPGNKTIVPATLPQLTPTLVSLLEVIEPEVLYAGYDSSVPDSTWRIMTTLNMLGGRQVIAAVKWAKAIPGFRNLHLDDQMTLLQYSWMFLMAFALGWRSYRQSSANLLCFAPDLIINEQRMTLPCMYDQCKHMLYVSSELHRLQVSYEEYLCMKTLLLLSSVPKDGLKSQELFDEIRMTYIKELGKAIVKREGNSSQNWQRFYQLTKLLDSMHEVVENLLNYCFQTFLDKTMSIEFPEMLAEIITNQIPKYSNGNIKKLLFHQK

NAV1.5 = NAV1.5 (Homo sapiens, UniProt Q14524); experiment: Safetyscan47 Ion Channel, Blocker; format: cell-based
NAV1.5, sequence (Q14524 whole entry): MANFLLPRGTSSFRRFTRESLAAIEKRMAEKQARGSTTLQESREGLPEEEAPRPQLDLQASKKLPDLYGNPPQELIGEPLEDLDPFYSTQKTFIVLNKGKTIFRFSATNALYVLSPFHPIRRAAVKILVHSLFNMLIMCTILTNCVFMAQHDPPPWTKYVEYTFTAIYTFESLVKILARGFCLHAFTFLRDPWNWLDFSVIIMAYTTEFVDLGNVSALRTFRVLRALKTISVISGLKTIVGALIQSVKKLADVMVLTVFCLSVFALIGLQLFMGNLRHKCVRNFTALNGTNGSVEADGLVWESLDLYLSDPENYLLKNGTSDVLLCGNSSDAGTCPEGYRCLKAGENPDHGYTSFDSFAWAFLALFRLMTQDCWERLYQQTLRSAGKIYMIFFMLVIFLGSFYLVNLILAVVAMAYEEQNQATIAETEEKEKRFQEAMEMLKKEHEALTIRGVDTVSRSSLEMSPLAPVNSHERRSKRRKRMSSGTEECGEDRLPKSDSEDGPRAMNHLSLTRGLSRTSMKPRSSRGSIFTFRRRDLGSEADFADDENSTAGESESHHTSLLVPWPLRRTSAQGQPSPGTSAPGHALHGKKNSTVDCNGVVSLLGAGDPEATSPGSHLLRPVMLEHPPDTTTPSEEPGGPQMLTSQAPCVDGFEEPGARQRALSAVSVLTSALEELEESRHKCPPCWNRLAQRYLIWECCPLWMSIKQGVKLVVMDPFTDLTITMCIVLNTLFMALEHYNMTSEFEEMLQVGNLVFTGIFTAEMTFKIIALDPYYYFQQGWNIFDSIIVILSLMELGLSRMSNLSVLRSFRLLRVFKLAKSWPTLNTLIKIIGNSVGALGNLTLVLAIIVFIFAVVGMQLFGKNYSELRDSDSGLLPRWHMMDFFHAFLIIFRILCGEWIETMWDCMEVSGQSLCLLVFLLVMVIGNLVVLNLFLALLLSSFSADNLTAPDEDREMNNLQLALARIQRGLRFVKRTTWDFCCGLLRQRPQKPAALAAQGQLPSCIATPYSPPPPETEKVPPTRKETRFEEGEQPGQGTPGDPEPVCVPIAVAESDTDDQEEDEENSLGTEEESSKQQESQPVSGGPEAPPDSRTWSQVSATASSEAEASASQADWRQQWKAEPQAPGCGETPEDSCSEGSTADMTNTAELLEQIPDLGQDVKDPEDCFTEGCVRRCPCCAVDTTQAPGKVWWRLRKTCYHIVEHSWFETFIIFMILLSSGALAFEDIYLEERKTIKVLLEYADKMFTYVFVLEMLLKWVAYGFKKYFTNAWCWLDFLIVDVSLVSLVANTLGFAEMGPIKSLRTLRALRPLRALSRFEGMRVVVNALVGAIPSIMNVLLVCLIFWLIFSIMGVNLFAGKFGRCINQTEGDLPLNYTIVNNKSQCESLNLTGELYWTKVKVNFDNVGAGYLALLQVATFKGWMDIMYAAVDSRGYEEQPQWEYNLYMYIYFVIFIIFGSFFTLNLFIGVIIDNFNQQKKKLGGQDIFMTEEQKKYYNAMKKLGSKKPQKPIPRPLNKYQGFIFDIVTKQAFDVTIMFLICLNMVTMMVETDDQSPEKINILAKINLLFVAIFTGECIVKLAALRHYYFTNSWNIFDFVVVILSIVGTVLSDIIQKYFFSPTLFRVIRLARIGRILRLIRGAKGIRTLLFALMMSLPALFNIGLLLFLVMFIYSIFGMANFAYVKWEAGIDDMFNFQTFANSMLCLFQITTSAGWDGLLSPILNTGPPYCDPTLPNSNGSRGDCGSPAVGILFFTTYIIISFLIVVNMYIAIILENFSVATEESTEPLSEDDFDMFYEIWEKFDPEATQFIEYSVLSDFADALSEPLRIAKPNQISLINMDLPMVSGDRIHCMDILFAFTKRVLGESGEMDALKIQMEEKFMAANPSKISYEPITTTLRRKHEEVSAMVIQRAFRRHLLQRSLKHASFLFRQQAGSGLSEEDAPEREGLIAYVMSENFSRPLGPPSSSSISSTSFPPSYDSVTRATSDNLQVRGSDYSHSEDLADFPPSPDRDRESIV

[1] = Pharmacokinetics in female Balb/c mice; format: in vivo, mouse
DRD1 = DRD1 (Homo sapiens, UniProt P21728); experiment: Safetyscan47 GPCR cAMP, Agonist; format: cell-based
DRD1, sequence (P21728 whole entry): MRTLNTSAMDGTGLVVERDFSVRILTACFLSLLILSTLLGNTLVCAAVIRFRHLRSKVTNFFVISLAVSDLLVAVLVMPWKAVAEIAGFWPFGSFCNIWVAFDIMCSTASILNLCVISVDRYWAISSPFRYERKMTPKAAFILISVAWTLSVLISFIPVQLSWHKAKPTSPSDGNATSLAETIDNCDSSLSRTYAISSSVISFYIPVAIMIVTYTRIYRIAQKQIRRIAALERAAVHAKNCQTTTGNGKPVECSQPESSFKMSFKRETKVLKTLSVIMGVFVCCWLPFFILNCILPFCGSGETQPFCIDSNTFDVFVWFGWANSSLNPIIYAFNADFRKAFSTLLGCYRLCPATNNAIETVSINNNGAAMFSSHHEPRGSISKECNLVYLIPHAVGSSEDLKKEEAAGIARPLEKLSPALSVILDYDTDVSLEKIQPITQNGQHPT

CNR2 = CNR2 (Homo sapiens, UniProt P34972); experiment: Safetyscan47 GPCR cAMP, Antagonist; format: cell-based
CNR2, sequence (P34972 whole entry): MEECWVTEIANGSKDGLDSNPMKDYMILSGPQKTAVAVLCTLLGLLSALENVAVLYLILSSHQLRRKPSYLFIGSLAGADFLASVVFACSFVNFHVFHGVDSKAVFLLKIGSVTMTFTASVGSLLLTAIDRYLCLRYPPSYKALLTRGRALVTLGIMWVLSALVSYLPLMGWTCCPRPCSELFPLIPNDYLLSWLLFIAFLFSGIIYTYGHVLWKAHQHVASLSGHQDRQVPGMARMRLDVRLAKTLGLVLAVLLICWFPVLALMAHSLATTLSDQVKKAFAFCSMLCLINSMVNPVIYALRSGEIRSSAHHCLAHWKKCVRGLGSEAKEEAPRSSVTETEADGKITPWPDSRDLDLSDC

[2] = IP 30 mg/kg, mouse, animal 11F031
[3] = IP 30 mg/kg, mouse, animal 11F032
[4] = IP 30 mg/kg, mouse, animal 11F033
[5] = Table 3SA: IP 30 mg/kg, Mean N=2
[6] = female, Balb/c, mouse, plasma, ip, 30 mg/kg

LCK, sequence (P06239 whole entry): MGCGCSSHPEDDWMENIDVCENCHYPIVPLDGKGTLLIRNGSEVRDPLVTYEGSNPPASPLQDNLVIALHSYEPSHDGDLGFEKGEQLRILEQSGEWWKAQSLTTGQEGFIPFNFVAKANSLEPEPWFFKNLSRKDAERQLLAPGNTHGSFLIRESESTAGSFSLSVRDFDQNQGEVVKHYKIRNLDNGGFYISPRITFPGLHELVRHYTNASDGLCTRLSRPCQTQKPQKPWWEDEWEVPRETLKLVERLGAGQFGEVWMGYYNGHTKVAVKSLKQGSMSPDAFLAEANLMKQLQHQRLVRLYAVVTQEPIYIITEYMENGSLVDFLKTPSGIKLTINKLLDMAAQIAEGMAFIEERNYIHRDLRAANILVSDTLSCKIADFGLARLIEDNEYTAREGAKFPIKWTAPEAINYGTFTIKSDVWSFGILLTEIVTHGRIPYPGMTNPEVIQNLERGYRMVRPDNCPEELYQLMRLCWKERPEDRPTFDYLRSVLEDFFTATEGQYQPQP

CC[C@H](C)[C@H](NC(=O)[C@H](CC(C)C)NC(=O)[C@H](CC(=O)O)NC(=O)CNC(=O)[C@H](CCCNC(=N)N)NC(=O)[C@@H](NC(=O)[C@H](Cc1ccccc1)NC(=O)[C@H](Cc1ccc(O)cc1)NC(=O)[C@@H]1CCC(=O)NCC(=O)NCC(=O)N[C@@H](CCCNC(=N)N)C(=O)NCC(=O)N[C@@H](Cc2c[nH]cn2)C(=O)N[C@@H](C(C)C)C(=O)N2CCC[C@H]2C(=O)N1)C(C)C)C(=O)N[C@@H](CO)C(=O)N[C@@H](Cc1ccccc1)C(=O)N[C@@H](Cc1ccc(O)cc1)C(=O)N[C@@H](CCCCN)C(=O)O [lassotide 36] (GGRGHVPEYFVRGDLISFYK-OH; lactam N-8)
IC50 (LCK): > 45 µM
Emax (LCK; read-out: Max Response): 0%
IC50 (CHRM1): > 45 µM
Emax (CHRM1; read-out: Max Response): 8.3%
EC50 (GR): > 45 µM
Emax (GR; read-out: Max Response): 0%
Emax (NAV1.5): 39.5%
IC50 (NAV1.5): > 45 µM
AUCINF [1, 2]: 64500
AUClast [1, 2]: 64500
CL/F [1, 2]: 7.75
Cmax [1, 2]: 21000
Tmax [1, 2]: 2.0
Vz/F [1, 2]: 363
t1/2 [1, 2]: 0.54
AUCINF [1, 3]: 71700
AUClast [1, 3]: 69400
CL/F [1, 3]: 6.97
Cmax [1, 3]: 27300
Tmax [1, 3]: 1.0
Vz/F [1, 3]: 389
t1/2 [1, 3]: 0.64
AUClast [1, 4]: 885
Cmax [1, 4]: 10600
Tmax [1, 4]: 0.17
Vz ([1]; Mouse, 30 mg/kg IP, mean): 0.4 L/kg
AUCINF [1, 5]: 68100
Vz/F [1, 5]: 376
AUC(0-t) [1, 6]: 44900 ng·h/mL
CL/F [1, 6]: 7.36 mL/min/kg
Cmax [1, 6]: 19600 ng/mL
Tmax [1, 6]: 63.6 min
half-life [1, 6]: 35.5 min
EC50 (DRD1): > 45 µM
Emax (DRD1; read-out: Max Response): 0%
IC50 (CNR2): > 45 µM
Emax (CNR2; read-out: Max Response): 1.15%
